Series [1] has as its target T1, SGLT1 (Homo sapiens, UniProt P13866).
T1 construct: endogenous in cells; host or cells: differentiated Caco-2 cell monolayers (ATCC)
T1 sequence (P13866 1-664): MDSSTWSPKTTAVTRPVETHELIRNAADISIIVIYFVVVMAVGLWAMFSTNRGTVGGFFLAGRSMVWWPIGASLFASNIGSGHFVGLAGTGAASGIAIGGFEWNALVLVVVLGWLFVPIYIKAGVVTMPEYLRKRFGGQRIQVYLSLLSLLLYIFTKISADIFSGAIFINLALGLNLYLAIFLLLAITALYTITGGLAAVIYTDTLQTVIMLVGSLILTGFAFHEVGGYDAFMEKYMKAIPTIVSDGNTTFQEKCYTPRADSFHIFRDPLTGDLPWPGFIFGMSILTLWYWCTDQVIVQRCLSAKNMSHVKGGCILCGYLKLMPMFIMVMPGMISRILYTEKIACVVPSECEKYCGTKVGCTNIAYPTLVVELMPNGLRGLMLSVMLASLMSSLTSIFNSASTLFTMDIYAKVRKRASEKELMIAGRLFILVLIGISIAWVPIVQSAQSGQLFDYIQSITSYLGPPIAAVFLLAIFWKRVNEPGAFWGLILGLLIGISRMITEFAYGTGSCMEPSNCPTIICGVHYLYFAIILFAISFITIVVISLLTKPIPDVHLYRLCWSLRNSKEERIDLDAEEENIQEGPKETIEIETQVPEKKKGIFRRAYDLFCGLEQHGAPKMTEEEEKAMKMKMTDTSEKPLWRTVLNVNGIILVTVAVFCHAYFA
Briefly: Glucose transport inhibitor cell screening assay, 5 mM D-glucose for 15 minutes (SGLT1 inhibition). Type of series: cell-based. Particulars: for SGLT1 inhibitory activity (in words): Caco-2 cell model; for SGLT1 inhibitory activity (in words) / % Glucose Transport inhibition 5 mM: 5 mM D-glucose; for Class (assigned class of transporter inhibited): assigned from % inhibition at 5 mM and 25 mM D-glucose in Caco-2 cells; for % Glucose Transport inhibition 5 mM: differentiated Caco-2 monolayer, 15 minutes, active at 300 uM. The protocol: (§1) Human epithelial colorectal adenocarcinoma (Caco-2) cells were obtained from the American Type Culture Collection (ATCC) and cultured in Growth Medium consisting of Dulbecco's modified Eagle's medium (containing Glutamax-1, 4.5 g/L D-glucose and 25 mM 4-(2-hydroxyethyl)-1-piperazine ethanesulphonic acid (Hepes) (Invitrogen)), 10% foetal bovine serum (Sigma), 1% non-essential amino acids (Invitrogen) and 1 mM sodium pyruvate (Sigma)). The cells were routinely passaged at approximately 80% confluence using TrypLE™ Express Stable Trypsin-Like Enzyme (Invitrogen) to detach the cells, and seeded at approximately 114 cells per mm^2 in fresh tissue culture flasks. Only cells between the passage numbers 45 and 49 were used for experiments.
(§2) Corning® HTS Transwell® 96 well permeable insert supports (Sigma) were collagen coated with 40 μl of 50 μg/ml rat tail collagen type I (BD Biosciences) in 0.02 M acetic acid for one hour at room temperature under sterile conditions. The inserts were washed twice in phosphate buffered saline (PBS (Invitrogen)) and the Caco-2 cells seeded into the inserts at 9.6×10^5 cell/ml (75 μl per insert) in Growth Medium and 30 ml of Growth Medium added to the feeder plate below. The cells were left to attach to the collagen matrix and form monolayers over 48 hours at 37° C., 5% CO2. Both inserts and feeder plate were washed in PBS and the cells incubated with BD Entero-STIM™ Enterocyte Differentiation Medium containing MITO+™ Serum Extender solution (both BD Biosciences), 75 μl per insert and 30 ml in the feeder plate, for a further 48 hours at 37° C., 5% CO2.
(§3) Differentiated cell monolayers were washed gently in Dulbecco's Phosphate Buffered Saline containing CaCl2 and MgCl2 (PBS(+) (Invitrogen)) and the inserts transferred to a new Corning® HTS Transwell®-96 well receiver plate (Sigma). The cells were incubated with fresh PBS(+) (75 μl per insert and 225 μl per well) for 60 minutes at 37° C., 5% CO2. The PBS(+) was gently aspirated and replaced with 75 μl per insert of either 5 mM D-glucose (Sigma)±test active or 25 mM D-glucose±test active in triplicate and 225 μl per well of PBS(+) quickly added to each well. The 5 mM glucose wells and the 25 mM glucose wells were incubated at 37° C., 5% CO2 for 15 minutes and 30 minutes, respectively. Details of all the actives tested are found in table 1. The cell inserts were transferred to a new receiver plate, the supernatant gently aspirated from the cells and replaced with 100 μl of 100 μM of Lucifer Yellow (Sigma) solution to confirm the integrity of the monolayers. 225 μl of PBS(+) was added to each well and incubated at 37° C., 5% CO2 for 1 hour. The cell inserts were then discarded and the permeability of the membranes to Lucifer Yellow checked by measuring the fluorescence of the samples at 485 nm (excitation) and 530 nm (emission) on a Spectramax Gemini EM fluorescence microplate reader.
(§4) The amount of glucose transported across the cell monolayers was measured using a glucose assay based on Invitrogen's Amplex Red Glucose/Glucose oxidase Assay Kit. Briefly, 50 μl of each test sample was transferred to a black sided/clear bottom 96-well plate (Greiner Bio-One) to which 100 μl of reaction buffer (0.5 μl 10 mM Ampliflu Red, 1 μl 10 U/ml Horse Radish peroxidase, 1 μl 100 U/ml glucose oxidase and 97.5 μl PBS (all Sigma)) was added. After 10 minutes incubation at room temperature, the fluorescence of the samples were measured at 530 nm (excitation) and 590 nm (emission) on a Spectramax Gemini EM fluorescence microplate reader and the glucose concentration extrapolated from a standard curve.
(§5) At higher D-glucose concentrations, the SGLT1 transporter becomes saturated and consequently the majority of glucose transport across the monolayer is driven by the low affinity, high capacity GLUT2 transporter that is targeted to the apical membrane only following an initial SGLT1-dependent transport of glucose.
A general note: Passage across Caco-2 layers is used to estimate intestinal permeability.

Series [2] deals with T2, GLUT2 (Homo sapiens, UniProt P11168).
T2 construct: endogenous in cells; host or cells: differentiated Caco-2 cell monolayers (ATCC)
T2 sequence (P11168 1-524): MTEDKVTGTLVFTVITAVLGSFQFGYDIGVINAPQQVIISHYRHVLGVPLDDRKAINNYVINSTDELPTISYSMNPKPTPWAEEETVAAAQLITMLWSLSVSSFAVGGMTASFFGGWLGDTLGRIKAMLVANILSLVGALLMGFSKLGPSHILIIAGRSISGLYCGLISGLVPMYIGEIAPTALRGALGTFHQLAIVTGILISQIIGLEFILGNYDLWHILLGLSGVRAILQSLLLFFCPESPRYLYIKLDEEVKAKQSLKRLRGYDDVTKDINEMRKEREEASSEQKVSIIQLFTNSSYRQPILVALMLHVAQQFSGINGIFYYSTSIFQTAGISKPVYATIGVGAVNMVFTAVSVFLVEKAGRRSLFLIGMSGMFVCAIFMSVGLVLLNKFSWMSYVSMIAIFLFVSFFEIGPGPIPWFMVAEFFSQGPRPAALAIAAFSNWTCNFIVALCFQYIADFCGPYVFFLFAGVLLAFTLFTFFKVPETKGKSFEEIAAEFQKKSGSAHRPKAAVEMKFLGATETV
Nature of the series: Glucose transport inhibitor cell screening assay, 25 mM D-glucose for 30 minutes (GLUT2 inhibition). As to conditions: differentiated Caco-2 monolayer, 30 minutes, active at 150 uM. In kind it is cell-based. Here is the method:
as §1, §2, §3, §4, §5

The target in series [3] is T3, Human Lactase Phloridzin Hydrolase (hLPH) (Homo sapiens, UniProt P09848).
T3 construct: endogenous in cells; host or cells: Caco-2 cells held at confluence for 21 days; trans-membrane protein extract passed through a G-25 Sephadex spin column
T3 sequence (P09848 869-1927): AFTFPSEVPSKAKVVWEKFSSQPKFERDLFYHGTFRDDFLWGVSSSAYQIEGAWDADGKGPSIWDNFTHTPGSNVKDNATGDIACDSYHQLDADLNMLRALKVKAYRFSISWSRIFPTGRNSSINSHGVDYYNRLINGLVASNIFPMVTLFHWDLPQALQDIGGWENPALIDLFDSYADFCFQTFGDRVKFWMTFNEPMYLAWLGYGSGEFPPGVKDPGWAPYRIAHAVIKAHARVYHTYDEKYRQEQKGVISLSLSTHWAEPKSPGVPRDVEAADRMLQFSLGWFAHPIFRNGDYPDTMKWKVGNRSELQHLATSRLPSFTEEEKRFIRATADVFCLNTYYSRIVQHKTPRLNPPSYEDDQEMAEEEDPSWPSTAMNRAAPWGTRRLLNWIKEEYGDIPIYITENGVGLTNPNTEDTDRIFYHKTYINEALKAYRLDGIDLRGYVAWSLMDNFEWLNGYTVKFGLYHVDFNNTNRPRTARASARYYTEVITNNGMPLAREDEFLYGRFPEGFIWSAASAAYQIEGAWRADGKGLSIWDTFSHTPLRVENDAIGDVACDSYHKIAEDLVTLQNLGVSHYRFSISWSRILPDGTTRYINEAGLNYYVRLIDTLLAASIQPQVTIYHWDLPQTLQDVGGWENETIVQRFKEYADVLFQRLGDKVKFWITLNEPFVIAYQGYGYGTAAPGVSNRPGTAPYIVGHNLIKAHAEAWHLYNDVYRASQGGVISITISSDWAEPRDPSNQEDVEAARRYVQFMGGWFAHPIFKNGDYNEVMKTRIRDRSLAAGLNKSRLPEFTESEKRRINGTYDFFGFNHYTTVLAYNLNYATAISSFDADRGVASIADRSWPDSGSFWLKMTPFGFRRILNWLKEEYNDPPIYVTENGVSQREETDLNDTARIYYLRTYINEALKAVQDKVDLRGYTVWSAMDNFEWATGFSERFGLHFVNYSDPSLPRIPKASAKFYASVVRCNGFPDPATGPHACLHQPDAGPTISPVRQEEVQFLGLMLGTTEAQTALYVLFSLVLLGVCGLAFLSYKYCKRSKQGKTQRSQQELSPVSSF
Nature of the series: hLPH enzyme assay (glucoside hydrolysis by LPH extract from Caco-2 cells). In kind it is in vitro ADME. As to conditions: glucoside 1.0 mM, 1 hour at 37° C.; for μM substrate hydrolysed/hr: 10% LPH extract (Caco2 cell-line), pH 6.0; for Resistance to hydrolysis-% Q4G: relative to Q4G, 10% LPH extract. Here is the method: Extracts were stored at −80° C. in 50 ul aliquots. Prior to use extracts were semi-purified, removing low molecular weight interfering components by passing through a small G-25 Sephadex 50-100 μl spin-column (Roche or ThermoFisher Scientific). 10 μl of semi-purified LPH extract was added to 90 μl of glucoside (1.0 mM final concentration) in 0.1 M maleate (Sigma) buffer, pH 6.0 and incubated for 60 minutes at 37° C. The reaction was terminated by addition of 200 μl 2M Tris (Sigma), pH 8.0. […] This allowed a full recovery of glucose which was measured using the Amplex® Red Glucose/Glucose Oxidase Assay. […] Fluorescence was read on a SpectraMax Gemini EM SN plate reader (Molecular Devices) (excitation. 530 nm and emission at 590 nm).

Values joined by “and” are separate entries in the source; they are usually repeats but may differ in a detail not shown here. Equal values may be shown once.

Turning to `O=c1c(O)c(-c2ccc(O)cc2)oc2cc(O[C@@H]3O[C@H](CO)[C@@H](O)[C@H](O)[C@H]3O)cc(O)c12` [Kaempferol 7-O-glucoside], in series [1], the “SGLT1 inhibitory activity (in words)” value is on record as “inhibition of SGLT1”, the “Class (assigned class of transporter inhibited)” value was “SGLT1” and the “% Glucose Transport inhibition 5 mM” value came to 43.89%. The “% Glucose Transport inhibition 25 mM” value in series [2] came to 14.42%. Further, in series [3], the μM substrate hydrolysed/hr is 0.618 μM substrate hydrolysed/hr and the “Resistance to hydrolysis-% Q4G” value is 80.05%.

Regarding `O=c1cc(-c2ccc(O)c(O)c2)oc2cc(O[C@@H]3O[C@H](CO)[C@@H](O)[C@H](O)[C@H]3O)cc(O)c12` [Luteolin-7-glucoside], in series [1], the “SGLT1 inhibitory activity (in words)” value is recorded as “inhibition of SGLT1”, the “Class (assigned class of transporter inhibited)” value is reported as “SGLT1” and the “% Glucose Transport inhibition 5 mM” value amounted to 44.09%. Moreover, the “% Glucose Transport inhibition 25 mM” value in series [2] amounted to 17.03%. Besides, in series [3], the μM substrate hydrolysed/hr is on record as 0.814 μM substrate hydrolysed/hr and the “Resistance to hydrolysis-% Q4G” value came out at 73.72%.

Consider `O=C1CC(c2ccc(O)cc2)Oc2cc(O[C@@H]3O[C@H](CO)[C@@H](O)[C@H](O)[C@H]3O)cc(O)c21` (some centres unmarked) [Naringenin-7-O-glucoside], for which, in series [1], the “SGLT1 inhibitory activity (in words)” value is “inhibition of SGLT1” and the “Class (assigned class of transporter inhibited)” value is listed as “SGLT1”. Besides, in series [2], the “% Glucose Transport inhibition 25 mM” value came out at 0.06%. The μM substrate hydrolysed/hr in series [3] is on record as 1.564 μM substrate hydrolysed/hr. The “Resistance to hydrolysis-% Q4G” value in series [3] (listed as N7G) was 49.5% and 49.52%.
